Values quoted from earlier work, collected in patent US4657924A, “Nafazatrom as a lipoxygenase inhibitor” (priority 1983, dated 1987).

Key:
cyclooxygenase = details: stated disadvantage; cited from earlier work
[1] = test system: synthesis of prostaglandins from arachidonic acid; details: comparison with nafazatrom; cited from earlier work

Row | SMILES | activity of known lipoxygenase inhibitors as cyclooxygenase inhibitors (cyclooxygenase) | action on the synthesis of prostaglandins from arachidonic acid [1]
1 | CCCCCC#CCC#CCC#CCC#CCCCC(=O)O [5,8,11,14-eicosatetrainoic acid] | either at the same time active as cyclooxygenase inhibitors or active only in very high concentrations | 
2 | O=C1CCN(c2ccccc2)N1 [phenidone] | either at the same time active as cyclooxygenase inhibitors or active only in very high concentrations | 
3 | CC(Cc1ccc(O)c(O)c1)C(C)Cc1ccc(O)c(O)c1 (stereo not shown) [nordihydroguaiaretic acid] | either at the same time active as cyclooxygenase inhibitors or active only in very high concentrations | 
4 | COc1ccc2c(c1)c(CC(=O)O)c(C)n2C(=O)c1ccc(Cl)cc1 [indomethacin] |  | overall inhibiting action
